Measured values reported in US11865125B2, “APKC inhibitors and methods of treating a neurodegenerative disease or disorder” (UNIVERSITY OF SOUTH FLORIDA, priority 2016, dated 2024).
“Also recorded” adds a separate entry of the source.

Experiments:
β-secretase (BACE1) = test: brain β-secretase activity (BACE1) in mice; format: in vivo, mouse
Description: Mouse Studies. Brain samples were obtained from normal and insulin-resistant mice and monkeys used previously, and includes mice originally used in studies of insulin signaling and resistance in liver: (a) 4-6 month old C57Bl/6 mice used in studies of high-fat-feeding [USF Vivarium] [6]; 4-6 month-old male C57Bl/6 ob/ob and lean ob+ mice (Jackson Labs, Bar Harbor, Maine); and (c) 10-12 month-old C57Bl/6 Het-MλKO mice [USF Vivarium] [8]. Males and females were comparably present in experimental groups, and sex didn't appreciably alter combined findings. Hepatic alterations, clinical characteristics and ameliorating effects of liver-selective aPKC inhibitors were reported previously. […] Where indicated, Het-MλKO were injected subcutaneously (SC) once daily for 8 days with saline or 1H-imidazole-4-carboxamide,5-amino]-(2,3-dihydroxy-4-[(phosphono-oxy)methyl]cyclopentane-[1R-(1a,2b,3b,4a)] (ICAPP) 0.4 mg/kg body weight) in saline, to inhibit hepatic aPKC, and thus diminish aPKC-dependent expression of hepatic gluconeogenic and lipogenic enzymes, and thereby reduce serum insulin levels to near-normal. Where indicated normal mice were given a single SC injection of saline or saline containing 1.5 mg/kg ICAPP to follow time-related alterations in brain signaling factors. Where indicated, mice were treated intraperitoneally (IP) with insulin (1 U/kg body weight) or vehicle 15-min before euthanization by administration of Xylazine/Ketamine, followed by whole body perfusion with phosphate-buffered saline and rapid removal of brain and other tissues.
(§1) Tissue Preparations. As described, mouse brains were hemisected sagittally, and one-half was frozen in liquid N2, stored at −80° C., and samples thereof were homogenized in buffer containing 0.25M sucrose, 20 mM Tris/HCl (pH, 7.5), 2 mmol/l EGTA, 2 mM EDTA, 1 mM phenlysulfonoylfluoride (PMSF), 20 μg/ml leupeptin, 10 μg/ml aprotinin, 2 mM Na4P2O7, 2 mM Na3VO4, 2 mM NaF, and 1 μM microcystin, and then supplemented with 1% TritonX-100, 0.6% Nonidet and 150 mM NaCl.
β-Secretase Activity (BACE1; beta-site APP-cleaving enzyme-1). β-Secretase was measured was measured using a kit from Thermo-Fisher.

[1] = system: Akt substrates, GSK3β and mTOR; test: phosphorylation of Akt substrates in LA1-5s neuroblastoma cells; format: cell-based, human; conditions: LA1-5s cells, 200 nM insulin, data not shown
Method: Relative bar values in panel a are mean±SEM of 6 determinations. Asterisks: *, P<0.05; **, P<0.01; ***, P<0.001 (ANOVA). Values in panel b are means of 2-4 determinations.
(§2) Western Analyses. As described, Western analyses were conducted with rabbit antisera or mouse monoclonal antibodies (mMab), using: anti-aPKC (Santa Cruz Biotechnologies, Santa Cruz, CA); anti-phospho-threonine-560/555-PKC-ζ/λ/ι (Invitrogen, Carlsbad, CA); anti-p-serine-256-FoxO1 and anti-FoxO1 (Abnova, Walnut, CA); anti-Akt (mMab), anti-phospho-serine-473-Akt, anti-phospho-serine-9-GSK3P anti-GSK313, anti-phospho-serine-253-FoxO3a, anti-FoxO3a, anti-phospho-serine-256-FoxO1, anti-phospho-serine-193-FoxO4; anti-FoxO1, anti-phospho-serine-2448-mTOR, anti-mTOR, anti-β-amyloid (anti-5-10 kDa-Aβ1-40/42) and anti-amyloid precursor protein (anti-120 kDa-APP) (Cell Signaling Technologies, Danvers, MA); and anti-phospho-serine-202-tau, anti-phospho-threonine-231-tau (Gene Tex, Irvine, CA). Samples from experimental groups were compared on the same blots, and routinely checked with loading controls. Note that: insulin-sensitive 70 kDa aPKC is largely PKC-ζ in mouse brain and orthologous PKC-ι (98% aa homology) in monkey and other primate brains; brain PKC-ζ exists largely as a 50 kDa moiety that, lacking a regulatory domain, is constitutively-active and unresponsive to insulin.

Aβ1-40/42 = test: brain Aβ1-40/42 peptide levels in mice; format: in vivo, mouse
Description: Mouse Studies. Brain samples were obtained from normal and insulin-resistant mice and monkeys used previously, and includes mice originally used in studies of insulin signaling and resistance in liver: (a) 4-6 month old C57Bl/6 mice used in studies of high-fat-feeding [USF Vivarium] [6]; 4-6 month-old male C57Bl/6 ob/ob and lean ob+ mice (Jackson Labs, Bar Harbor, Maine); and (c) 10-12 month-old C57Bl/6 Het-MλKO mice [USF Vivarium] [8]. […] Where indicated normal mice were given a single SC injection of saline or saline containing 1.5 mg/kg ICAPP to follow time-related alterations in brain signaling factors. Where indicated, mice were treated intraperitoneally (IP) with insulin (1 U/kg body weight) or vehicle 15-min before euthanization by administration of Xylazine/Ketamine, followed by whole body perfusion with phosphate-buffered saline and rapid removal of brain and other tissues.
as §1, §2
Where indicated, mice were randomly treated with insulin (1 unit/kg/bw i.p.) 15 min before being euthanized by administration of xylazine/ketamine, followed by whole-body perfusion with PBS and rapid removal of brain and other tissues.

aPKC = biological target: T1, aPKC (Mus musculus, UniProt Q62074); conditions: previously seen, stated as similar; read-out: IC50, inhibition of aPKC activity in mouse adipocytes; cited from earlier work
T1 construct: previously seen in isolated human hepatocytes, mouse adipocytes and recombinant PKC-λ/ι [8,16]; endogenous in cells; host or cells: isolated mouse adipocytes
T1 sequence (Q62074 2-595 limits assumed): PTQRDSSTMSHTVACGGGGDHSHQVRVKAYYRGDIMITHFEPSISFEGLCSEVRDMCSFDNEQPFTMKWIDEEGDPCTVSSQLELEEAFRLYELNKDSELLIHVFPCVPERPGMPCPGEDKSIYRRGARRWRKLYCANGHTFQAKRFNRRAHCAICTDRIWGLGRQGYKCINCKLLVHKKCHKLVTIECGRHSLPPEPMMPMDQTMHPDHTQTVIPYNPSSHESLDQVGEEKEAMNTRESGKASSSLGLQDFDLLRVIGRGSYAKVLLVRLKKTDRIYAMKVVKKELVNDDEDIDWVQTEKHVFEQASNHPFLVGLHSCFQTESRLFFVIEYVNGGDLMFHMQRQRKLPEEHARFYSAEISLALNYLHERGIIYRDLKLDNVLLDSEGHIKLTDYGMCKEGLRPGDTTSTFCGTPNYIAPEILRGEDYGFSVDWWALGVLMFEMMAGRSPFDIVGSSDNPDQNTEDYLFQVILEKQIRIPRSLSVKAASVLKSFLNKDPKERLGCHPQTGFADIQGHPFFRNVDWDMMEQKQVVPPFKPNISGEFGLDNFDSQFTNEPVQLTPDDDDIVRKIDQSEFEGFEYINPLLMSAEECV

[2] = normal mice, single s.c. dose of ICAPP 1.5 mg/kg, insulin 1 U/kg i.p. 15 min before killing

## NC(=O)c1ncn([C@@H]2C[C@H](COP(=O)(O)O)[C@@H](O)[C@H]2O)c1N [ICAPP]
β-secretase (BACE1); Het-MλKO mice, ICAPP 0.4 mg/kg s.c. once daily for 8 days
  resting/basal brain β-secretase activity: reduced resting/basal β-secretase activity to near-normal levels
β-secretase (BACE1); Het-MλKO mice, ICAPP 0.4 mg/kg s.c. once daily for 8 days, insulin 1 U/kg i.p. 15 min
  acute insulin-stimulated increases in brain β-secretase activity: fully blocked
β-secretase (BACE1); [2]
  insulin-dependent brain β-secretase activity: time-related, well-correlated decreases; also recorded: blocked acute effects of insulin
[1]
  effect on insulin-stimulated phosphorylation of Akt substrates: without altering
Aβ1-40/42; Het-MλKO mice, s.c. once daily for 8 days (ICAPP 0.4 mg/kg, ATM 60 mg/kg)
  resting/basal brain Aβ1-40/42 peptide levels: returned to normal
Aβ1-40/42; Het-MλKO mice, s.c. once daily for 8 days (ICAPP 0.4 mg/kg, ATM 60 mg/kg), insulin 1 U/kg i.p. 15 min
  acute insulin-induced increase in brain Aβ1-40/42 levels: comparable loss in the ability of insulin to acutely increase Aβ1-40/42 levels; also recorded: abrogated
Aβ1-40/42; [2]
  insulin-dependent brain Aβ1-40/42 peptide levels: time-related, well-correlated decreases; also recorded: blocked acute effects of insulin
aPKC
  IC50: 1 to 10 nM
